{
  "source": "patent US20100113372A1",
  "about": "“Method For Preparing Kaempferol-3-0-Rutinoside and Composition of Skin External Application Comprising Thereof” (Amorepacific Corporation, priority 2006, published 2010)",
  "key": {"collagenase": {"test_system": "collagenase", "test": "Inhibitory effect of collagenase expression (collagenase immunoassay of fibroblast culture media)", "format": "cell-based", "conditions": "human fibroblasts; for Degree of collagenase expression (%): serum-free DMEM, 1×10^4M for 24 hours, untreated group = 100", "procedure": "The effect of inhibiting collagenase expression achieved by kaempferol-3-O-rutinoside obtained from Examples 3 and 4 is measured and compared with that achieved by tocopherol and EGCG. Tocopherol and EGCG are anti-oxidation materials that regenerate an epidermal cell of skin and prevent skin aging.\n(§1) Human fibroblasts were inserted in a 96-well microtiter plate containing the DMEM (Dulbecco's Modified Eagle's Media) media with 2.5% fetal bovine serum to a quantity of 5000 cells/well and cultured until the human fibroblasts grow by 90%, then cultured again in the serum-free DMEM media for 24 hours. The kaempferol-3-O-rutinoside of Examples 3 and 4, tocopherol and EGCG dissolved in the serum-free DMEM media were treated at a concentration of 1×10^4M for 24 hours, and the cell culture media was harvested.\nThe degree of collagenase generation of harvested cell culture media was measured using an instrument for measuring collagenase (Amershampharmacia Company). The harvested cell culture media was added in a 96-well plate coated uniformly with first collagenase antibody, and antigen-antibody reaction was conducted for 3 hours in a thermostat.\nAfter 3 hours, second collagen antibody bonded with chromophore was added in the 96-well plate to react for 15 minutes. After 15 minutes, color developing material was inserted at room temperature for 15 minutes to induce color development, then 1M sulfuric acid was added to terminate the reaction (color development). The color of the reaction solution is yellow and the degree of yellow color can differ according to a degree of reaction progression.\nAbsorbance of the 96-well plate having the yellow color was measured through an absorbency measurement at 405 nm and a degree of synthesis was calculated by the following equation 1. In the calculation, an absorbance of cell culture media untreated with the material was used as a control group. That is, a degree of collagenase expression of an untreated group is 100, and a degree of collagenase expression of a group treated with the material as compared to that of the control group is obtained."}, "procollagen": {"test_system": "procollagen", "test": "Promoting effect of procollagen generation (procollagen type-1 C-peptide EIA kit)", "format": "cell-based", "conditions": "human fibroblasts; for Degree of procollagen generation (%): serum-free DMEM, 1×10^−4M for 24 hours, untreated group = 100", "procedure": "The promoting effect of procollagen generation achieved by kaempferol-3-O-rutinoside obtained from Examples 3 and 4 is measured and compared with that achieved by vitamin C. The procollagen is a material inducing collagen generation and is required to generate collagen and prevent aging. Vitamin C is known as an essential component for synthesis of collagen.\nas §1, with “4,” for “4, tocopherol”, “vitamin C” for “EGCG”, “1×10^−4M” for “1×10^4M”, “harvested. After 24 hours, the amount of procollagen floating in the culture media was measured using procollagen type-1 C-peptide EIA kit (MK101, Takara, Japan).” for “harvested.”\nIn an untreated group, a degree of procollagen generation is 100. A degree of procollagen generation of a group treated with the material as compared to that of the control group is obtained."}},
  "data": [
    {"molecule": "CC1OC(OCC2OC(Oc3c(-c4ccc(O)cc4)oc4cc(O)cc(O)c4c3=O)C(O)C(O)C2O)C(O)C(O)C1O", "note": "(centres unmarked) [Example 3-1, Kaempferol-3-O-rutinoside]", "values": [
      {"measurement": "Degree of collagenase expression (%)", "setting": "collagenase", "result": 70, "unit": "%"},
      {"measurement": "Degree of procollagen generation (%)", "setting": "procollagen", "result": 121, "unit": "%"}
    ]},
    {"molecule": "CC1OC(OCC2OC(Oc3c(-c4ccc(O)cc4)oc4cc(O)cc(O)c4c3=O)C(O)C(O)C2O)C(O)C(O)C1O", "note": "(centres unmarked) [kaempferol-3-O-rutinoside]", "values": [
      {"measurement": "Effect on collagenase expression (in words)", "setting": "collagenase; in vitro", "result": "inhibits the collagenase expression in vitro"},
      {"measurement": "Effect on procollagen generation (in words)", "setting": "procollagen; in vitro", "result": "promotes the procollagen generation in vitro"}
    ]},
    {"molecule": "O=C1O[C@H]([C@@H](O)CO)C(O)=C1O", "note": "[Vitamin C, reference compound]", "values": [
      {"measurement": "Degree of procollagen generation (%)", "setting": "procollagen", "result": 120, "unit": "%"}
    ]},
    {"molecule": "CC1OC(OCC2OC(Oc3c(-c4ccc(O)cc4)oc4cc(O)cc(O)c4c3=O)C(O)C(O)C2O)C(O)C(O)C1O", "note": "(centres unmarked) [Example 3-2, Kaempferol-3-O-rutinoside]", "values": [
      {"measurement": "Degree of collagenase expression (%)", "setting": "collagenase", "result": 71, "unit": "%"},
      {"measurement": "Degree of procollagen generation (%)", "setting": "procollagen", "result": 118, "unit": "%"}
    ]},
    {"molecule": "Tocopherol [reference compound]", "values": [
      {"measurement": "Degree of collagenase expression (%)", "setting": "collagenase", "result": 75, "unit": "%"}
    ]},
    {"molecule": "CC1OC(OCC2OC(Oc3c(-c4ccc(O)cc4)oc4cc(O)cc(O)c4c3=O)C(O)C(O)C2O)C(O)C(O)C1O", "note": "(centres unmarked) [Example 4-2, Kaempferol-3-O-rutinoside]", "values": [
      {"measurement": "Degree of collagenase expression (%)", "setting": "collagenase", "result": 73, "unit": "%"},
      {"measurement": "Degree of procollagen generation (%)", "setting": "procollagen", "result": 123, "unit": "%"}
    ]},
    {"molecule": "O=C(O[C@@H]1Cc2c(O)cc(O)cc2O[C@@H]1c1cc(O)c(O)c(O)c1)c1cc(O)c(O)c(O)c1", "note": "[EGCG, reference compound]", "values": [
      {"measurement": "Degree of collagenase expression (%)", "setting": "collagenase", "result": 60, "unit": "%"}
    ]},
    {"molecule": "CC1OC(OCC2OC(Oc3c(-c4ccc(O)cc4)oc4cc(O)cc(O)c4c3=O)C(O)C(O)C2O)C(O)C(O)C1O", "note": "(centres unmarked) [Example 3-3, Kaempferol-3-O-rutinoside]", "values": [
      {"measurement": "Degree of collagenase expression (%)", "setting": "collagenase", "result": 63, "unit": "%"},
      {"measurement": "Degree of procollagen generation (%)", "setting": "procollagen", "result": 138, "unit": "%"}
    ]},
    {"molecule": "CC1OC(OCC2OC(Oc3c(-c4ccc(O)cc4)oc4cc(O)cc(O)c4c3=O)C(O)C(O)C2O)C(O)C(O)C1O", "note": "(centres unmarked) [Example 4-3, Kaempferol-3-O-rutinoside]", "values": [
      {"measurement": "Degree of collagenase expression (%)", "setting": "collagenase", "result": 70, "unit": "%"},
      {"measurement": "Degree of procollagen generation (%)", "setting": "procollagen", "result": 122, "unit": "%"}
    ]},
    {"molecule": "CC1OC(OCC2OC(Oc3c(-c4ccc(O)cc4)oc4cc(O)cc(O)c4c3=O)C(O)C(O)C2O)C(O)C(O)C1O", "note": "(centres unmarked) [Example 4-1, Kaempferol-3-O-rutinoside]", "values": [
      {"measurement": "Degree of collagenase expression (%)", "setting": "collagenase", "result": 68, "unit": "%"},
      {"measurement": "Degree of procollagen generation (%)", "setting": "procollagen", "result": 145, "unit": "%"}
    ]}
  ]
}
